According to the RepoRT retention time repository (doi:10.1016/j.jchromb.2020.122105):
Counter-ions that a name gives are not always drawn.

Tests used:
Details in all cases: stereoisomer not certain
[1] = RP, Waters ACQUITY UPLC BEH C18, 100 × 2.1 mm, 1.7 µm, 0.2 mL/min, estimated dead time 1.1 min; A: water + 0.1% formic acid, pH 3; B: methanol + 0.1% formic acid, pH 3; gradient (min/%B) 0/5 5/5 25/100 30/100 30.1/5 35/5
[2] = RP, Waters CORTECS T3, 100 × 2.1 mm, 2.7 µm, 0.3 mL/min, estimated dead time 0.73 min; A: water + 0.1% formic acid, pH 3; B: methanol + 0.1% formic acid, pH 3; gradient (min/%B) 0/0 5/0 25/100 30/100 30.1/0 35/0
[3] = RP, Waters CORTECS T3, 100 × 2.1 mm, 2.7 µm, 0.3 mL/min, estimated dead time 0.73 min; A: water + 0.1% formic acid, pH 3; B: methanol + 0.1% formic acid, pH 3; gradient (min/%B) 0/5 5/5 25/100 30/100 30.1/5 35/5
[4] = RP, Waters ACQUITY UPLC BEH C18, 100 × 2.1 mm, 1.7 µm, 0.1 mL/min, estimated dead time 2.2 min; A: water + 0.1% formic acid, pH 3; B: methanol + 0.1% formic acid, pH 3; gradient (min/%B) 0/5 5/5 25/100 30/100 30.1/5 35/5
[5] = RP, Waters CORTECS T3, 100 × 2.1 mm, 2.7 µm, 0.2 mL/min, estimated dead time 1.1 min; A: water + 0.1% formic acid, pH 3; B: methanol + 0.1% formic acid, pH 3; gradient (min/%B) 0/5 5/5 25/95 25.1/100 35/100 35.1/5 45/5
[6] = RP, Waters CORTECS T3, 100 × 2.1 mm, 2.7 µm, 0.25 mL/min, estimated dead time 0.88 min; A: water + 0.1% formic acid, pH 3; B: methanol + 0.1% formic acid, pH 3; gradient (min/%B) 0/0 1/0 6/5 30/100 35/100 35.1/0 40/0
[7] = RP, Waters CORTECS T3, 100 × 2.1 mm, 2.7 µm, 0.1 mL/min, estimated dead time 2.2 min; A: water + 0.1% formic acid, pH 3; B: methanol + 0.1% formic acid, pH 3; gradient (min/%B) 0/0 1/0 6/5 30/100 35/100 35.1/0 40/0
[8] = HILIC, Merck SeQuant ZIC-HILIC, 150 × 2.1 mm, 5 µm, 0.75 mL/min, estimated dead time 0.44 min; A: water + 10 mM ammonium formate, pH 6; B: 5% water + 95% acetonitrile + 10 mM ammonium formate, pH 6; gradient (min/%B) 0/95 5/95 20/57 25/57 30/95 40/95
[9] = RP, Waters CORTECS T3, 100 × 2.1 mm, 2.7 µm, 0.3 mL/min, estimated dead time 0.73 min; A: water + 0.1% formic acid, pH 3; B: methanol + 0.1% formic acid, pH 3; gradient (min/%B) 0/0 5/0 25/100 30/100 30.1/0 35/0; remark: listed apart in the source
[10] = RP, Waters CORTECS T3, 100 × 2.1 mm, 2.7 µm, 0.15 mL/min, estimated dead time 1.5 min; A: water + 0.1% formic acid, pH 3; B: methanol + 0.1% formic acid, pH 3; gradient (min/%B) 0/0 1/0 6/5 30/100 35/100 35.1/0 40/0
[11] = RP, Waters CORTECS T3, 100 × 2.1 mm, 2.7 µm, 0.2 mL/min, estimated dead time 1.1 min; A: water + 0.1% formic acid, pH 3; B: methanol + 0.1% formic acid, pH 3; gradient (min/%B) 0/0 1/0 6/5 30/100 35/100 35.1/0 40/0
[12] = RP, Waters CORTECS T3, 100 × 2.1 mm, 2.7 µm, 0.3 mL/min, estimated dead time 0.73 min; A: water + 0.1% formic acid, pH 3; B: methanol + 0.1% formic acid, pH 3; gradient (min/%B) 0/0 1/0 6/5 30/100 35/100 35.1/0 40/0
[13] = RP, Waters CORTECS T3, 100 × 2.1 mm, 2.7 µm, 0.25 mL/min, estimated dead time 0.88 min; A: water + 0.1% formic acid, pH 3; B: methanol + 0.1% formic acid, pH 3; gradient (min/%B) 0/5 5/5 25/95 25.1/100 35/100 35.1/5 45/5
[14] = RP, Waters CORTECS T3, 100 × 2.1 mm, 2.7 µm, 0.3 mL/min, estimated dead time 0.73 min; A: water + 0.1% formic acid, pH 3; B: methanol + 0.1% formic acid, pH 3; gradient (min/%B) 0/0 1/0 6/5 30/100 35/100 35.1/0 40/0; remark: listed apart in the source
[15] = RP, Waters CORTECS T3, 100 × 2.1 mm, 2.7 µm, 0.3 mL/min, estimated dead time 0.73 min; A: water + 0.1% formic acid, pH 3; B: methanol + 0.1% formic acid, pH 3; gradient (min/%B) 0/5 5/5 25/95 25.1/100 35/100 35.1/5 45/5
[16] = RP, Waters CORTECS T3, 100 × 2.1 mm, 2.7 µm, 0.1 mL/min, estimated dead time 2.2 min; A: water + 0.1% formic acid, pH 3; B: methanol + 0.1% formic acid, pH 3; gradient (min/%B) 0/5 5/5 25/95 25.1/100 35/100 35.1/5 45/5
[17] = RP, Waters CORTECS T3, 100 × 2.1 mm, 2.7 µm, 0.2 mL/min, estimated dead time 1.1 min; A: water + 0.1% formic acid, pH 3; B: methanol + 0.1% formic acid, pH 3; gradient (min/%B) 0/0 1/0 6/5 30/100 35/100 35.1/0 40/0; remark: listed apart in the source
[18] = RP, Waters CORTECS T3, 100 × 2.1 mm, 2.7 µm, 0.15 mL/min, estimated dead time 1.5 min; A: water + 0.1% formic acid, pH 3; B: methanol + 0.1% formic acid, pH 3; gradient (min/%B) 0/5 5/5 25/95 25.1/100 35/100 35.1/5 45/5
[19] = HILIC, Merck SeQuant ZIC-HILIC, 150 × 2.1 mm, 5 µm, 0.75 mL/min, estimated dead time 0.44 min; A: water + 0.1% acetic acid + 10 mM ammonium acetate, pH 4; B: 5% water + 95% acetonitrile + 0.1% acetic acid + 10 mM ammonium acetate, pH 4; gradient (min/%B) 0/95 5/95 20/57 25/57 30/95 40/95
[20] = HILIC, Thermo Scientific Accucore HILIC, 100 × 2.1 mm, 2.6 µm, 0.5 mL/min, estimated dead time 0.44 min; A: water + 0.1% formic acid + 10 mM ammonium formate, pH 3; B: 5% water + 95% acetonitrile + 0.1% formic acid + 10 mM ammonium formate, pH 3; gradient (min/%B) 0/95 5/95 20/57 25/57 30/95 40/95
[21] = RP, Waters ACQUITY UPLC BEH C18, 100 × 2.1 mm, 1.7 µm, 0.1 mL/min, estimated dead time 2.2 min; A: water + 0.1% formic acid, pH 3; B: methanol + 0.1% formic acid, pH 3; gradient (min/%B) 0/5 5/5 25/95 25.1/100 35/100 35.1/5 45/5
[22] = RP, Waters ACQUITY UPLC BEH C18, 100 × 2.1 mm, 1.7 µm, 0.2 mL/min, estimated dead time 1.1 min; A: water + 0.025% formic acid + 20 mM ammonium acetate + 0.055% ammonium hydroxide, pH 7; B: methanol; gradient (min/%B) 0/5 5/5 25/100 30/100 30.1/5 35/5
[23] = HILIC, Waters XBridge BEH Amide, 100 × 2.1 mm, 2.5 µm, 0.5 mL/min, estimated dead time 0.44 min; A: water + 0.1% acetic acid + 10 mM ammonium acetate, pH 4; B: 5% water + 95% acetonitrile + 0.1% acetic acid + 10 mM ammonium acetate, pH 4; gradient (min/%B) 0/95 5/95 20/57 25/57 30/95 40/95

LC retention time [1] [min] | LC retention time [5] [min] | LC retention time [8] [min] | LC retention time [9] [min] | LC retention time [11] [min] | LC retention time [13] [min] | LC retention time [14] [min] | LC retention time [18] [min] | LC retention time [19] [min] | LC retention time [20] [min] | LC retention time [21] [min] | LC retention time [22] [min] | LC retention time [23] [min] | SMILES | further results
6.44 | 12.6 | 11 | 8.03 | 8.96 | 5.25 | 7.13 | 8.37 | 10.6 | 9.89 | 10.9 | – | – | N[C@@H](Cc1ccc(O)c([N+](=O)[O-])c1)C(=O)O [3-NITRO-L-TYROSINE] | LC retention time [2]: 7.98 min; LC retention time [3]: 4.34 min; LC retention time [4]: 10.8 min; LC retention time [6]: 7.83 min; LC retention time [7]: 6.31 min; LC retention time [10]: 10.4 min; LC retention time [12]: 6.9 min; LC retention time [15]: 4.27 min; LC retention time [16]: 10.8 min; LC retention time [17]: 8.81 min
3.16 | 9.19 | – | 3.7 | 5.13 | 2.43 | 3.71 | 3.97 | 8.54 | 2.99 | 6.08 | 1.38 | – | CC(=O)NCCCC(=O)[O-] [4-ACETAMIDOBUTANOATE] | –
11.9 | 16.9 | 12.9 | 11.3 | 13.3 | 10.9 | 11.7 | 13.1 | 11.9 | 2.01 | 15.6 | – | – | O=C(O)CCCCCC(=O)O [6-CARBOXYHEXANOATE] | –
2.68 | 5.88 | – | 2.13 | 3.02 | 1.89 | 2.13 | 3.09 | – | 1.05 | 5.22 | 2.03 | 1.66 | Nc1ccccc1S(=O)(=O)O [ANILINE-2-SULFONIC ACID] | –
16.3 | 21.8 | 7.14 | 15.4 | 18.4 | 15.6 | 16.9 | 17.6 | 9.72 | 1.1 | 19.9 | 1.41 | – | O=C(O)CCCCCCCC(=O)O [AZELAIC ACID] | –
8.3 | 13.3 | – | 8.31 | 9.43 | 6.13 | 7.57 | 9.18 | 7.68 | 5.85 | 12.3 | 2.14 | – | CSCCC(NC=O)C(=O)O [FORMYL-L-METHIONYL PEPTIDE] | –
8.8 | 13.6 | – | 8.35 | 9.62 | 6.23 | 7.71 | 9.5 | 3.84 | 0.54 | 12.8 | 5.76 | 0.95 | O=S(=O)(O)Oc1c[nH]c2ccccc12 [INDOXYL SULFATE] | –
3.3 | 10.8 | 8.73 | – | 6.93 | 2.9 | 5.37 | 4.68 | 8.42 | 4.88 | 2.76 | 1.41 | 7.97 | O=c1[nH]cnc2c1ncn2C1OC(CO)C(O)C1O (stereo not given) [INOSINE] | –
14.3 | 19.6 | – | 13.5 | 16.1 | 13.5 | 14.6 | 15.6 | – | 1.39 | 18 | – | – | O=C(O)CCCCCCC(=O)O [SUBERIC ACID] | –
